{
  "source": "paper PMC10870435",
  "about": "“A novel complement C3 inhibitor CP40-KK protects against experimental pulmonary arterial hypertension via an inflammasome NLRP3 associated pathway” (Journal of Translational Medicine, 2024)",
  "key": {"C3 activation (C3a)": {"system": "C3 activation (C3a)", "test": "Plasma C3a western blot in PAH rats", "format": "in vivo", "settings": "western blot of rat plasma; n = 6 per group", "method": "In the current study, two animal experiments were conducted successively. 30 rats were randomly divided into two groups (control group and MCT group, n = 15 per group) in the first experiment. MCT group rats received a single intraperitoneally injection of MCT (40 mg/kg) on day 1 to induce PAH while control group rats received an equivoluminal saline injection intraperitoneally. For the second animal experiment, the rats were assigned into four groups (control group, MCT group, CP40-KK group, and MCT + CP40-KK group, n = 15 per group). The control group was given the same volume of saline subcutaneously while the CP40-KK group rats only received CP40-KK (2 mg/kg) by subcutaneous injection from day 15 to day 28 continuously. […]\n[…] Protein concentration was quantified using a BCA reagent. […] To compare and quantify levels of proteins, the density of each band was measured using Image J software. Equal loading for total cell or tissue lysates was determined by β-Actin western blot.\n[…] Protein concentration was quantified using a BCA reagent. […] To compare and quantify levels of proteins, the density of each band was measured using Image J software. Equal loading for total cell or tissue lysates was determined by β-Actin western blot^3,4."}, "[1]": {"system": "rat complement C3 function", "test": "CH50 test (Mayer method) in vitro, peptide added to rat plasma", "format": "biochemical", "settings": "0, 2.5, 5.0, 10, 20, 40 µM added to mixed wild-type SD rat plasma; sensitized sheep erythrocytes", "method": "The total functional complement was determined with a CH50 assay based on the modified method of Mayer. The 50% haemolytic standard tube was made by adding 0.3 ml 2% sheep erythrocytes (Chundubio, Wuhan, China) to 1.2 ml distilled water and then diluting with equivoluminal veronal buffer saline (Leagene, Beijing, China). The sheep erythrocytes were sensitized by adding a designated volume of a predetermined concentration of rabbit haemolytic serum (Solarbio, Beijing, China) in veronal buffer saline. The plasma of rats was first prediluted in veronal buffer saline at 1/5, 1/10, and 1/20. […] The OD values of supernatant liquid in the ten tubes were measured at 541 nm and compared with that of the 50% haemolytic standard tube to get the most similar value. The total haemolytic complement (CH50) = dilution ratio / the quantity of plasma needed to induce 50% lysis of sheep erythrocytes.\nPlasma samples for biological assays from rats were centrifuged and stored at -80°C until used, and the total functional complement was determined with a CH50 assay based on the modified method of Mayer. This assay involves determining the quantity of plasma needed to induce 50% lysis of sheep erythrocytes sensitized with antibody anti-sheep erythrocytes. […] The total hemolytic complement (CH50) = dilution ratio / the quantity of plasma needed to induce 50% lysis of sheep erythrocytes^5-7."}},
  "note": "Bridge positions count the residues as written; N and C are the ends. Square brackets hold non-standard residues; d marks the D form. Peptide text beside a SMILES is read from it. Trp(1-Me) = Cn1cc(C[C@H](N)C(=O)O)c2ccccc21; NMeI = CC[C@H](C)[C@H](NC)C(=O)O; Sar = CNCC(=O)O",
  "data": [
    {"compound": "CC[C@H](C)[C@H](NC(=O)[C@H](N)Cc1ccc(O)cc1)C(=O)N[C@H]1CSSC[C@@H](C(=O)N(C)[C@H](C(=O)N[C@@H](CCCCN)C(=O)N[C@@H](CCCCN)C(N)=O)[C@@H](C)CC)NC(=O)[C@H](CCCNC(=N)N)NC(=O)[C@H](Cc2c[nH]cn2)NC(=O)CN(C)C(=O)[C@H](Cc2c[nH]c3ccccc23)NC(=O)[C@H](CC(=O)O)NC(=O)[C@H](CCC(N)=O)NC(=O)[C@H](Cc2cn(C)c3ccccc23)NC(=O)[C@H](C(C)C)NC1=O", "note": "[CP40-KK] (H-[dY]ICV[Trp(1-Me)]QDW[Sar]HRC[NMeI]KK-NH2; disulfide 3-12 (inferred))", "values": [
      {"measurement": "plasma C3a (C3 activation ex vivo)", "setting": "C3 activation (C3a)", "value": "significantly inhibit the C3 activation"},
      {"measurement": "CH50 value (rat C3 function) in vitro", "setting": "[1]", "value": "blocked rat C3 function in a dosage-dependent manner"}
    ]}
  ]
}
